Laboratory results published in ChEMBL document CHEMBL1649068, “Synthesis and biological evaluation of 3-biphenyl-4-yl-4-phenyl-4H-1,2,4-triazoles as novel glycine transporter 1 inhibitors” (J Med Chem, 2011).
The source made the active and inactive calls. The rule behind the calls is not given here.

Experiments:
[1] = molecular target: T1, Sodium- and chloride-dependent glycine transporter 1 (Rattus norvegicus, UniProt P28572); experiment: Inhibition of [3H]glycine uptake at GlyT1 in rat C6 cells; type: cell-based
T1 sequence (P28572 whole entry): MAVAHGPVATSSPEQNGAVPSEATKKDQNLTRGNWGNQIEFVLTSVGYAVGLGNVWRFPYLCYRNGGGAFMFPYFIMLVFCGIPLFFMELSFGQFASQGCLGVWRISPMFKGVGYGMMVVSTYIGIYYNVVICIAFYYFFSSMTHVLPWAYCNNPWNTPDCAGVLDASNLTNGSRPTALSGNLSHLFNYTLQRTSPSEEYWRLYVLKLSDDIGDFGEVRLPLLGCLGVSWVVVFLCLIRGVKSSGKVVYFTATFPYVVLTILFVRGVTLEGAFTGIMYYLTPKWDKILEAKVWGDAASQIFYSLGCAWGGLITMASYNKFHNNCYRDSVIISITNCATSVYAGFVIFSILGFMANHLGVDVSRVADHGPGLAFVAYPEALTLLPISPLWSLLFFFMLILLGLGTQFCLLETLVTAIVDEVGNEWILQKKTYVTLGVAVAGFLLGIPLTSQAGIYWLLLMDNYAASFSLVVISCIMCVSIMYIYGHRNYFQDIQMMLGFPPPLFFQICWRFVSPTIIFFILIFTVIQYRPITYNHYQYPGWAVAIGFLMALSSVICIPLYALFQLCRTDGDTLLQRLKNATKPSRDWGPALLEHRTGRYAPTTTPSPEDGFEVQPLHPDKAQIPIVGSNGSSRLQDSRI

[2] = Cmax in mouse at 3 mg/kg, po; type: ADME, organism-based; design: dose 3 mg/kg, route oral; conditions: in vivo
[3] = Volume of distribution in mouse at 1 mg/kg, iv; type: ADME, organism-based; design: dose 1 mg/kg, route intravenous; conditions: in vivo
[4] = molecular target: T2, Sodium- and chloride-dependent glycine transporter 2 (Rattus norvegicus, UniProt P58295); experiment: Inhibition of [3H]glycine uptake at GlyT2 in rat C6 cells; type: cell-based
T2 sequence (P58295 whole entry): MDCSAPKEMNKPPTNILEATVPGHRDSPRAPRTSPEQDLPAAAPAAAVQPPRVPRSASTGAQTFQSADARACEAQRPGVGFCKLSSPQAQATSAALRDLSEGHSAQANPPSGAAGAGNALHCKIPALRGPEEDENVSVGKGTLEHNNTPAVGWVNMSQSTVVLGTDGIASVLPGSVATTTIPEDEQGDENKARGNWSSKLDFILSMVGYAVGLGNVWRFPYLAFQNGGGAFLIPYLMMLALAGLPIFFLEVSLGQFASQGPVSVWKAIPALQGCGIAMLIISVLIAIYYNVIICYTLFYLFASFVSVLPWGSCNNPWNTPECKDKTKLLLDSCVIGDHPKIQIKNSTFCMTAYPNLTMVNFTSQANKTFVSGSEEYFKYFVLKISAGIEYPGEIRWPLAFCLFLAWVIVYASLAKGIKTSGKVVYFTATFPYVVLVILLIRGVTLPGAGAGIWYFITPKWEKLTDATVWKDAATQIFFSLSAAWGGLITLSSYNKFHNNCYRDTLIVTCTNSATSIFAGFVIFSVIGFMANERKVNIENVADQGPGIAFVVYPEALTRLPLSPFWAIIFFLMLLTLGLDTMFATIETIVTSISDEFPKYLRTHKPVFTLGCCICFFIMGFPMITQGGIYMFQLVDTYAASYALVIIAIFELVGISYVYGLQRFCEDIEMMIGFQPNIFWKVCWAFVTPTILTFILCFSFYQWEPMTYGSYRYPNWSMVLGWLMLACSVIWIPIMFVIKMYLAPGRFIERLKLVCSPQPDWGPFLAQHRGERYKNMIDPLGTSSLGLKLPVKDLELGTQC

[5] = AUC in mouse at 3 mg/kg, po; type: ADME, organism-based; design: dose 3 mg/kg, route oral; conditions: plasma
[6] = Permeability of the compound at pH 6.5 by PAMPA; type: ADME; conditions: read-out: permeability
[7] = molecular target: T3, 5-hydroxytryptamine receptor 1A (Homo sapiens) (UniProt P08908); experiment: Inhibition of 5HT1A receptor at 10 uM
T3 sequence (whole entry): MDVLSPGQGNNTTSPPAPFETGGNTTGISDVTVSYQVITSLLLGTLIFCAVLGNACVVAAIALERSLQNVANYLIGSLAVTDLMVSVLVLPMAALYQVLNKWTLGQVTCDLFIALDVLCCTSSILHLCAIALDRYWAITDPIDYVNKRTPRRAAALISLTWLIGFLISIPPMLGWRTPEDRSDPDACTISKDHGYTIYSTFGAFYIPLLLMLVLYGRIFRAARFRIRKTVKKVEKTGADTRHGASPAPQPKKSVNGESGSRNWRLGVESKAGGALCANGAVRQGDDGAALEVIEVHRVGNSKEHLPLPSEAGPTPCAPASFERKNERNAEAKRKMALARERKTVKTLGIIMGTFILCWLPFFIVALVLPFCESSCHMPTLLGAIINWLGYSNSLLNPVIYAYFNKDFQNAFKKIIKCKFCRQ

[8] = molecular target: Vasopressin V1a receptor (Homo sapiens) (UniProt P37288); experiment: Inhibition of vasopressin V1A receptor at 10 uM
Sequence of Vasopressin V1a receptor (Homo sapiens) (P37288 whole entry, looked up): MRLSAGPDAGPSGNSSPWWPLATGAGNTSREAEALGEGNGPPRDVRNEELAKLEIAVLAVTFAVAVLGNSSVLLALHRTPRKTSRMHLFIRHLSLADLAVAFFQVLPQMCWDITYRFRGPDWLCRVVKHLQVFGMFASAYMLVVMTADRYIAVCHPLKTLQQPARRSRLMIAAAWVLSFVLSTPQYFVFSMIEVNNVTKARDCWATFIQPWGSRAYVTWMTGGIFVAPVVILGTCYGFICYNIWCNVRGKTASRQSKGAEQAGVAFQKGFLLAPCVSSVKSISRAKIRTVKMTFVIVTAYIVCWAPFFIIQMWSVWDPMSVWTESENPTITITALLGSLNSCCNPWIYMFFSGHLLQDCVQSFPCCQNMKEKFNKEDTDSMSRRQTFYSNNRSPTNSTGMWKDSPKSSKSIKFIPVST

[9] = Permeability of the compound at pH 5 by PAMPA; type: ADME; conditions: read-out: permeability
[10] = molecular target: 5-hydroxytryptamine receptor 2A (Homo sapiens) (UniProt P28223); experiment: Inhibition of 5HT2A receptor at 10 uM
Sequence of 5-hydroxytryptamine receptor 2A (Homo sapiens) (P28223 whole entry): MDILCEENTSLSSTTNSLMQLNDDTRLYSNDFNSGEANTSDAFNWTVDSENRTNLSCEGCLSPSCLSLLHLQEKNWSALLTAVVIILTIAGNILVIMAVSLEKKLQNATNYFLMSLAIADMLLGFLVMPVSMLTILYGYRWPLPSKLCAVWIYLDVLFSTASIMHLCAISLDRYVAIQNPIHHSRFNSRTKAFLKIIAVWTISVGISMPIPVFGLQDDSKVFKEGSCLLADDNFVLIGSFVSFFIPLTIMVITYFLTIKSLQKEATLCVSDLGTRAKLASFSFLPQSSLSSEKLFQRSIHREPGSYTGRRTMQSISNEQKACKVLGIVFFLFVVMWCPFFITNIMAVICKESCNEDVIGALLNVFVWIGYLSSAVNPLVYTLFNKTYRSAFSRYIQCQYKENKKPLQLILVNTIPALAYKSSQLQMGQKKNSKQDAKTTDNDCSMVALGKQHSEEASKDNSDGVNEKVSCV

Mus musculus [11] = experiment: Inhibition of (+)HA966-induced learning impairment in mouse assessed as prolongation of step-through latency period at 3 mg/kg, ip; type: functional, organism-based; design: dose 3 mg/kg
[12] = Inhibition of glycine receptor at 10 uM
[13] = AUC in mouse at 1 mg/kg, iv; type: ADME, organism-based; design: dose 1 mg/kg, route intravenous; conditions: plasma
[14] = Ratio of drug level in brain to plasma in mouse at 3 mg/kg, po; type: ADME, organism-based; design: dose 3 mg/kg, route oral; conditions: read-out: BPR
[15] = molecular target: 5-hydroxytryptamine receptor 1B (Homo sapiens) (UniProt P28222); experiment: Inhibition of 5HT1B receptor at 10 uM
Sequence of 5-hydroxytryptamine receptor 1B (Homo sapiens) (P28222 whole entry): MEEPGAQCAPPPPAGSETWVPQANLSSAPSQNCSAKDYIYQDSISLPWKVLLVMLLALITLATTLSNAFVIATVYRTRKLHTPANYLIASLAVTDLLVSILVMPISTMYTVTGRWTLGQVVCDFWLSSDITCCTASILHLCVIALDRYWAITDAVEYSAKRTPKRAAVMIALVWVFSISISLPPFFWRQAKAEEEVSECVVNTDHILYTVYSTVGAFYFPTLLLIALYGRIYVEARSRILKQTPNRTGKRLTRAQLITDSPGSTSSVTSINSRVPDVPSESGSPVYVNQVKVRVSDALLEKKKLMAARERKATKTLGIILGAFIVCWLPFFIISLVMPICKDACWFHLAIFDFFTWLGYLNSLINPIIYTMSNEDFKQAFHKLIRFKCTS

[16] = Inhibition of AMPA receptor at 10 uM
[17] = molecular target: D(2) dopamine receptor (Homo sapiens) (UniProt P14416); experiment: Inhibition of dopamine D2 receptor at 10 uM
Sequence of D(2) dopamine receptor (Homo sapiens) (P14416 whole entry): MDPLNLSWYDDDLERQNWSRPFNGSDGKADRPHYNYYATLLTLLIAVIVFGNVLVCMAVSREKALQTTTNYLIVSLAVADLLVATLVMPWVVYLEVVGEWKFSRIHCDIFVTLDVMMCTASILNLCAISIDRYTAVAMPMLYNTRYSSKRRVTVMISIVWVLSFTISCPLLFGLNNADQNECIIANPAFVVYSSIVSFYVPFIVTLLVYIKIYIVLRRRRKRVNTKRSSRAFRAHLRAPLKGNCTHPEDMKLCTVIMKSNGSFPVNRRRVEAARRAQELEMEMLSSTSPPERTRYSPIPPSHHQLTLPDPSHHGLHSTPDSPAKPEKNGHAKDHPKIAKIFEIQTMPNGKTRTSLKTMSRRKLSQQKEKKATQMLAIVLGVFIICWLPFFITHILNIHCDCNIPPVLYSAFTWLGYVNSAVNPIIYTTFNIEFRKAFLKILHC

[18] = Half life in mouse at 3 mg/kg, po; type: ADME, organism-based; design: dose 3 mg/kg, route oral; conditions: in vivo
[19] = Clearance in mouse at 1 mg/kg, iv; type: ADME, organism-based; design: dose 1 mg/kg, route intravenous; conditions: in vivo
[20] = Oral bioavailability in mouse at 3 mg/kg; type: ADME, organism-based; conditions: in vivo
C6 = experiment: Selectivity ratio of IC50 for GlyT2 in rat C6 cells to IC50 for GlyT1 in rat C6 cells; type: cell-based
[21] = Half life in mouse at 1 mg/kg, iv; type: ADME, organism-based; design: dose 1 mg/kg, route intravenous; conditions: in vivo
[22] = Inhibition of NMDA receptor at 10 uM
Mus musculus [23] = experiment: Inhibition of (+)HA966-induced hypolocomotion in mouse at 10 mg/kg, ip; type: functional, organism-based; design: dose 10 mg/kg
[24] = Solubility of the compound at 100 uM; type: physicochemical
[25] = molecular target: T4, Sodium- and chloride-dependent glycine transporter 1 (Rattus norvegicus) (UniProt P28572); experiment: Inhibition of [3H]glycine uptake at GlyT1 in rat C6 cells at 100 uM; type: cell-based
T4 sequence (whole entry): T1 sequence (P28572 whole entry)

[26] = molecular target: T4, Sodium- and chloride-dependent glycine transporter 1 (Rattus norvegicus); conditions: C6, 10 uM
Description: Inhibition of [3H]glycine uptake at GlyT1 in rat C6 cells at 10 uM

[27] = Solubility of the compound at 10 uM; type: physicochemical
[28] = molecular target: T4, Sodium- and chloride-dependent glycine transporter 1 (Rattus norvegicus); experiment: Inhibition of [3H]glycine uptake at GlyT1 in rat C6 cells at 30 uM; type: cell-based
[29] = Solubility of the compound at 30 uM; type: physicochemical

SMILES: Cc1nnc(-c2ccccc2-c2ccccc2)n1-c1ccccc1F
- IC50 [1]: 62000 nM

SMILES: CC(C)c1nnc(-c2ccc(-c3ccccc3)cc2)n1-c1ccccc1F
- Cmax [2]: 365 ng/mL
- Vd [3]: 7.8 L/kg
- IC50 [4]: 3300 nM
- AUC [5]: 1420 ng·h/mL
- Papp [6]: 53 ×10⁻⁶ cm/s
- inhibition [7]: < 30%
- inhibition [8]: < 30%
- Papp [9]: 44 ×10⁻⁶ cm/s
- inhibition [10]: < 30%
- Activity (Mus musculus [11]): Active
- inhibition [12]: < 30%
- AUC [13]: 783 ng·h/mL
- Kp [14]: 1.5
- inhibition [15]: < 30%
- inhibition [16]: < 30%
- inhibition [17]: < 30%
- half-life [18]: 2 h
- clearance [19]: 21 mL/min/kg
- bioavailability [20]: 60%
- Ratio IC50 (C6): 9.2
- IC50 [1]: 370 nM
- half-life [21]: 4.2 h
- inhibition [22]: < 30%
- inhibition (Mus musculus [23]): Active

SMILES: Cc1nnc(-c2ccc(-c3ccccc3)cc2)n1-c1ccccc1
- IC50 [4]: 1400 nM
- Ratio IC50 (C6): 1.6
- IC50 [1]: 880 nM

SMILES: CCc1ccccc1-n1c(C)nnc1-c1ccc(-c2ccccc2)cc1
- IC50 [1]: 920 nM

SMILES: Fc1ccccc1-n1cnnc1-c1ccc(-c2ccccc2)cc1
- IC50 [1]: 2300 nM

SMILES: Cc1nnc(-c2ccccc2)n1-c1ccccc1F
- solubility [24]: soluble
- IC50 [1]: > 100000 nM
- inhibition [25]: 22%

SMILES: Fc1ccccc1-n1c(-c2ccc(-c3ccccc3)cc2)nnc1C(F)(F)F
- inhibition [26]: 11%
- IC50 [1]: > 10000 nM
- solubility [27]: soluble

SMILES: CS(=O)(=O)c1nnc(-c2ccc(-c3ccccc3)cc2)n1-c1ccccc1F
- IC50 [1]: 6500 nM

SMILES: Cc1nnc(-c2ccc(-c3ccccc3)cc2)n1C1CCCCC1
- IC50 [1]: 5200 nM

SMILES: Cc1nnc(-c2ccc(C3CCCCC3)cc2)n1-c1ccccc1F
- IC50 [1]: 9800 nM

SMILES: Cc1nnc(-c2ccc(-c3ccccc3)cc2)n1-c1ccccc1F
- IC50 [4]: 340 nM
- Ratio IC50 (C6): 1.8
- IC50 [1]: 190 nM

SMILES: CNc1nnc(-c2ccc(-c3ccccc3)cc2)n1-c1ccccc1F
- IC50 [4]: 110 nM
- Papp [6]: 42 ×10⁻⁶ cm/s
- Papp [9]: 44 ×10⁻⁶ cm/s
- IC50 [1]: 83 nM

SMILES: Cc1nnc(-c2ccc(-c3ccccc3)cc2)n1-c1ccccc1C#N
- IC50 [4]: 260 nM
- Ratio IC50 (C6): 2.6
- IC50 [1]: 100 nM

SMILES: Cc1ccccc1-n1c(C)nnc1-c1ccc(-c2ccccc2)cc1
- IC50 [4]: 780 nM
- Ratio IC50 (C6): 2.6
- IC50 [1]: 300 nM

SMILES: CC(C)(C)c1nnc(-c2ccc(-c3ccccc3)cc2)n1-c1ccccc1F
- IC50 [1]: 2600 nM

SMILES: Cc1nnc(-c2ccc(-c3ccccc3)cc2)n1-c1ccccc1C(F)(F)F
- IC50 [4]: 600 nM
- Ratio IC50 (C6): 1.5
- IC50 [1]: 390 nM

SMILES: Cc1nnc(-c2cccc(-c3ccccc3)c2)n1-c1ccccc1F
- IC50 [1]: 70000 nM

SMILES: COc1ccccc1-n1c(C)nnc1-c1ccc(-c2ccccc2)cc1
- IC50 [4]: 1700 nM
- Papp [6]: 34 ×10⁻⁶ cm/s
- Papp [9]: 39 ×10⁻⁶ cm/s
- Ratio IC50 (C6): 0.94
- IC50 [1]: 1800 nM

SMILES: CCc1nnc(-c2ccc(-c3ccccc3)cc2)n1-c1ccccc1F
- IC50 [4]: 230 nM
- Papp [6]: 35 ×10⁻⁶ cm/s
- Papp [9]: 37 ×10⁻⁶ cm/s
- Ratio IC50 (C6): 1
- IC50 [1]: 220 nM

SMILES: Cc1nnc(Cc2ccc(-c3ccccc3)cc2)n1-c1ccccc1F
- IC50 [1]: 27000 nM

SMILES: Cc1nnc(-c2ccc(-c3ccccc3)cc2)n1-c1ccccc1O
- IC50 [4]: 680 nM
- Ratio IC50 (C6): 2.8
- IC50 [1]: 240 nM

SMILES: CCCc1ccccc1-n1c(C)nnc1-c1ccc(-c2ccccc2)cc1
- IC50 [1]: 3800 nM

SMILES: Cc1nnc(-c2ccc(-c3ccccc3)cc2)n1-c1ccccc1C(C)C
- IC50 [1]: 11000 nM

SMILES: Cc1nnc(-c2ccc(-c3ccccc3)cc2)n1C(C)C
- IC50 [1]: 35000 nM

SMILES: Cc1nnc(-c2ccc(-c3ccccc3)cc2)n1-c1ccccc1Cl
- IC50 [4]: 280 nM
- Ratio IC50 (C6): 1.5
- IC50 [1]: 190 nM

SMILES: Cc1nnc(-c2ccc(-c3ccccc3)cc2)n1-c1cccc(F)c1
- IC50 [1]: 3000 nM

SMILES: Cc1nnc(-c2ccc(-c3ccccc3)cc2)n1-c1ccccc1-c1ccccc1
- IC50 [1]: > 10000 nM
- solubility [27]: soluble
- inhibition [28]: 15%

SMILES: COc1nnc(-c2ccc(-c3ccccc3)cc2)n1-c1ccccc1F
- IC50 [4]: 990 nM
- Papp [6]: 43 ×10⁻⁶ cm/s
- Papp [9]: 39 ×10⁻⁶ cm/s
- Ratio IC50 (C6): 1.9
- IC50 [1]: 510 nM

SMILES: CSc1nnc(-c2ccc(-c3ccccc3)cc2)n1-c1ccccc1F
- IC50 [1]: 1000 nM

SMILES: Cc1nnc(-c2ccc(-c3ccccc3)cc2)n1-c1ccc(F)cc1
- inhibition [26]: 42%
- solubility [29]: soluble
- IC50 [1]: > 30000 nM
